6 substances from article PMC8140105 (Scientific Reports, 2021) can be followed below.

For one data set, the system named is BV-2 microglia cells. In words: IL-6 and TNFα determination (ELISA). Type of data set: cell-based, murine. Conditions: BV-2 cells, 10 µM; for microglial activating properties of metabolites (IL-6 production): n = 12. How it is done: BV-2 cells were a kind gift from Prof. Alba Minelli and were grown in RPMI medium supplemented with 10% fetal bovine serum (FBS) and 1% penicillin-streptromycin solution (Life Technologies, Belgium). The cells were cultured in culture flasks (Greiner, Belgium) in an incubator set at 37 °C and 5% CO2. When confluent, cells were detached using a cell scraper and diluted 1:20 approximately every 4 days. Experiments were performed in serum-free DMEM without phenol red.
To investigate the microglia activating properties of the peptide, IL-6 and TNFα levels were determined in cell-free supernatants of BV-2 microglia cells after treatment. BV-2 cells (2 × 10^5 cells/well) were seeded in 24-well plates and treated with peptide for 20 h. ELISA was performed according to the supplier’s protocol (eBioscience, Vienna, Austria). Briefly, after incubation with biotinylated detection antibody, avidin-HRP conjugate and subsequently chromogenic tetramethylbenzidine (TMB) substrate were added. Absorbance was measured at 450 nm and 570 nm using the Multiskan Ascent 354 microplate reader (Thermofisher, Waltham, USA). Concentrations were determined using the standard curve generated using known concentrations of TNFα and IL-6.

The nature of another data set: serum. The conditions noted are these: 37 °C, up to 60 min.
The next data set can be described thus: kidney homogenate. Conditions: ICR-CD-1 mice, 37 °C, up to 60 min.
The next data set can be described thus: liver homogenate. Conditions: ICR-CD-1 mice, 37 °C, up to 60 min.
A further data set is described as follows: brain homogenate. The conditions noted are these: ICR-CD-1 mice, 37 °C, up to 60 min.
A short description of another data set: faeces homogenate. The conditions noted are these: ICR-CD-1 mice, 37 °C, up to 60 min.
Data set [1] can be described thus: Multiple time regression (MTR) analysis, blood-to-brain influx. The conditions noted are these: 125I-labelled, mice, linear model, mean ± standard error. Type of data set: in vivo, ICR-CD-1 mice. How it is done: Briefly, 0.1 µmol of the lyophilized peptide was dissolved in 100 µL of phosphate buffer (pH 7.4, 25 mM). A Iodo-Gen coated tube (Thermo Scientific, Merelbeke, Belgium) was first of all rinsed with 1 mL of phosphate buffer. Subsequently, 50 µL of sodium iodide solution (1.1 µmol/mL) and 1 mCi of Na^125I solution (Perking Elmer, Zaventem, Belgium) were transferred into this Iodo-Gen coated tube. The oxidation reaction was allowed to proceed for six minutes at room temperature, after which the iodonium solution was transferred to 50 µL of peptide solution (1 mM). The iodination reaction of the peptide was allowed to proceed for another six minutes at room temperature. Finally, the iodinated peptide was purified using a silver filter (Thermo Scientific, Merelbeke, Belgium).
In order to determine whether the peptide could enter the brain, in vivo multiple time regression (MTR) analysis was performed. ICR-CD-1 mice were anesthetized intraperitoneally using a 40% urethane solution (3 g/kg). […] At specified time points after injection (i.e. 1, 3, 5, 10, 12.5 and 15 min, with start and end in duplicate), blood was obtained from the carotid artery followed by decapitation of the mouse. The isolated brain was weighed and radioactivity measured in a gamma counter for 5 min (Wallac Wizard automatic gamma counter, Perkin Elmer, Shelton, CT, USA), as well as from 50 µL serum, which was obtained by centrifuging the collected blood at 10,000g for 15 min at 21 °C. The linear and biphasic modeling of the multiple time regression analysis was performed as previously described.

Entries after “also recorded” stand apart in the source; their conditions may differ. No end group written: not given here.

For the substance “DLPF [metabolite of PapRIV formed in serum]”, the “microglial activating properties of metabolites (IL-6 production)” value (“microglial activating properties” below) in the data set with BV-2 microglia cells is “no activating properties”. As for DEHSFLP [DEHSFLP], the “activating properties (IL-6 and TNFα production)” value in the data set on BV-2 microglia cells (scrambled control) was “no activating properties”. As for “SDLPF [metabolite of PapRIV formed in serum]”, in the data set with BV-2 microglia cells, the “microglial activating properties” value is on record as “no activating properties”.

On to “DLPFEH [main metabolite of PapRIV formed in all matrices]”, for which the “microglial activating properties” value with BV-2 microglia cells is listed as “to the same extent as the native sequence”. In the case of SDLPFEH, the cleaved bond result in the data set “serum” is “S1-D2, major; also recorded: D2-L3; also recorded: F5-E6; also recorded: E6-H7”; in the data set “kidney homogenate” it was “D2-L3; also recorded: S1-D2, major”; in “liver homogenate”, “S1-D2, major; also recorded: D2-L3”; in “brain homogenate”, “S1-D2, major and D2-L”; in “faeces homogenate”, “S1-D2, major”. Dermorphin [reference compound]: the Kin in data set [1] (i.v. (jugular vein), 1–15 min) came to 0.35 ± 0.05 µL/g/min. In data set [1] (i.v.), the “Vascular brain distribution volume, V0” value was 15.93 ± 0.64 µL/g.
